In US11512085B2, “Heteroaryl compound having drug activity” (SHANGHAI DUDE MEDICAL TECHNOLOGY CO., LTD, priority 2017, dated 2022):

Tests used:
Format in all cases: cell-based
Jeko-1 = assay: In vitro tumor cell proliferation (CellTiter-Glo), Jeko-1; conditions: Homo sapiens, JeKo-1, 72 h; read-out: Growth IC50
Procedure: (§1) Biological Embodiment 8: Study on Effects of Active Compounds for Inhibiting In Vitro Tumor Cell Proliferation
(§2) Promega CellTiter-Glo cell activity detection kit by luminescence (Promega-G7573).
(§3) Tumor cell lines were cultured in a 5% of CO2 incubator at 37° C. according to respective culture conditions; and periodic passage was performed, and cells positioned in a logarithmic phase were taken for planking.
(§4) 3) 90 μL of cell suspension was added into each well of the culture plate, and a culture solution containing no cell was added into blank control;
(§5) 4) the culture plate was cultured overnight in the 5% of CO2 incubator having relative humidity of 100% at 37° C.
(§6) Preparation of a 400× compound storage plate: the compound was diluted from the maximum concentration gradient to the lowest concentration with DMSO. […]
(§7) The following steps were performed according to the specification of the Promega CellTiter-Glo cell activity detection kit by luminescence (Promega-G7573). […]
(§8) 9) the luminescence signal was detected on the 2104 EnVision plate reader.

SU-DHL-6 = assay: In vitro tumor cell proliferation (CellTiter-Glo), SU-DHL-6; conditions: Homo sapiens, SU-DHL-6, 72 h; read-out: Growth IC50
Procedure: as §1, §2, §3, §4, §5, §6, §7, §8

Mino = assay: In vitro tumor cell proliferation (CellTiter-Glo), Mino; conditions: Homo sapiens, 72 h, read-out: Growth IC50
Procedure: as §1, §2, §3, §4, §5, §6, §7, §8

WSU-NHL = assay: In vitro tumor cell proliferation (CellTiter-Glo), WSU-NHL; conditions: Homo sapiens, 72 h, read-out: Growth IC50
Procedure: as §1, §2, §3, §4, §5, §6, §7, §8

WSU-DLCL-2 = assay: In vitro tumor cell proliferation (CellTiter-Glo), WSU-DLCL-2; conditions: Homo sapiens, WSUDLCL2; WSU-DLCL-2, 72 h; read-out: Growth IC50
Procedure: as §1, §2, §3, §4, §5, §6, §7, §8

DB = assay: In vitro tumor cell proliferation (CellTiter-Glo), DB; conditions: Homo sapiens, 72 h, read-out: Growth IC50
Procedure: as §1, §2, §3, §4, §5, §6, §7, §8

C=CC(=O)NN1CCCC(n2nc(-c3ccc(Oc4ccccc4)cc3)c3c(N)ncnc32)C1 (stereo not drawn) [Embodiment 6, N-(3-(4-amino-3-(4-phenoxyphenyl)-1H-pyrazolo[3,4-D]pyrimidine-1-yl)-1-piperidyl)-acrylamide]
IC50 (Jeko-1): > 10000 nM | IC50 (SU-DHL-6): > 10000 nM | IC50 (Mino): 2170 nM | IC50 (WSU-NHL): 1020 nM | IC50 (WSU-DLCL-2): 921 nM | IC50 (DB): > 10000 nM
